Test results: ChEMBL document CHEMBL2311259, “Synthesis of novel chromene derivatives of expected antitumor activity” (Eur J Med Chem, 2013)

tested on: MCF7; test: Ratio of colchicine IC50 to compound IC50 for human MCF7 cells by SRB assay; type: functional

First: CCOC(=O)c1nc2c3c(ncn2n1)Oc1cc(OCC)ccc1C3c1ccc(Cl)cc1 (racemic)
Second: CCOc1ccc2c(c1)Oc1ncn3nc(-c4ccc(OC)cc4)nc3c1C2c1ccc(Cl)cc1 (racemic)
The “Ratio IC50” value of the first is higher: 2 for the first, 1.5 for the second.

Going from `COc1ccc2c(c1)Oc1ncn(N)c(=N)c1C2c1ccc(Cl)cc1` (mixture of isomers) to `COc1ccc2c(c1)Oc1ncn(C)c(=N)c1C2c1ccc(Cl)cc1` (racemic), the “Ratio IC50” value rises from 1.5 to 2.

For `COc1ccc(-c2nc3c4c(ncn3n2)Oc2cc(OC)ccc2C4c2ccc(Cl)cc2)cc1` (racemic), the “Ratio IC50” value was 1.5.
